Measurements taken from BindingDB's records for doi:10.1111/cbdd.12686 (Jamia Hamdard, 2016).

target: Xanthine dehydrogenase/oxidase (Bos taurus, UniProt P80457); test: Xanthine Oxidase (XO) Assay; conditions: pH 7.4
Sequence (P80457 whole entry): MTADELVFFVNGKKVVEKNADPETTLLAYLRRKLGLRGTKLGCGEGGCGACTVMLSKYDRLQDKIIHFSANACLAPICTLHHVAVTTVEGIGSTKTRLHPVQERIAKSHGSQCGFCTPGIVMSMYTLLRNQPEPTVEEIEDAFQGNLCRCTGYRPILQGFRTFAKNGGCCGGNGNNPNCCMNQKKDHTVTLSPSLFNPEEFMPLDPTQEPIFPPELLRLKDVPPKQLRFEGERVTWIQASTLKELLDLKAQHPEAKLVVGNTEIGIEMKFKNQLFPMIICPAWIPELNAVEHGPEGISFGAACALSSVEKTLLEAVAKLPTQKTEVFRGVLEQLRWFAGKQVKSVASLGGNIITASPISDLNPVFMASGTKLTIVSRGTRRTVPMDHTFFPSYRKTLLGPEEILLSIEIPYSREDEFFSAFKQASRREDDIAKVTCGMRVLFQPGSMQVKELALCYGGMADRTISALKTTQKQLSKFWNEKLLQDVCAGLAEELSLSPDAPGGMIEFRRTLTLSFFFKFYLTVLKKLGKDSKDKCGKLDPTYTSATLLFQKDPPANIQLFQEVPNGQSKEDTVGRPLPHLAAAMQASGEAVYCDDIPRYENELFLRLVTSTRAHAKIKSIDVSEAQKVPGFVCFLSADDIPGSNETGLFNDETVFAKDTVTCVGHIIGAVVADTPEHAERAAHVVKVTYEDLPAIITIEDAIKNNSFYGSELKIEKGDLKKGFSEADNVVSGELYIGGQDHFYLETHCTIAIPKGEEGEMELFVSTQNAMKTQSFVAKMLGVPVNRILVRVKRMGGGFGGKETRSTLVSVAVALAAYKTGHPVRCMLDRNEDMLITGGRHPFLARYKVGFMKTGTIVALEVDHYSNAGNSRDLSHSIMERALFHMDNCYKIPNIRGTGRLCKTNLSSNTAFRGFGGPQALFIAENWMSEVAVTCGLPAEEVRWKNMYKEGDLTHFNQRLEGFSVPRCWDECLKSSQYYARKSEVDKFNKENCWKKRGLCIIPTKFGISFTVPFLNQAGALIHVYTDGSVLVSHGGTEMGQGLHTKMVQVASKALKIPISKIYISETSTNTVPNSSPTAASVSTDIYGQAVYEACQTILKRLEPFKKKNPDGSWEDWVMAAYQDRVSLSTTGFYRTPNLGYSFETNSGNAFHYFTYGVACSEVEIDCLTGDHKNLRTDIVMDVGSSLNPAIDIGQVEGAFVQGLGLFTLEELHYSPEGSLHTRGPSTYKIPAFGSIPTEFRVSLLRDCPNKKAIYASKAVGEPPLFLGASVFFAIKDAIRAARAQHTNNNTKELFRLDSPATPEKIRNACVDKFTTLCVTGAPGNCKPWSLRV

SMILES	IC50 [µM]
Cc1nc(NCc2ccc(F)cc2)sc1C(=O)O [2-{[(4-fluorophenyl)methyl]amino}-4-methyl-1,3-thiazole-5-carboxylic acid (5c)]	30.3
Cc1nc(NCc2ccccc2Br)sc1C(=O)O [2-{[(2-bromophenyl)methyl]amino}-4-methyl-1,3-thiazole-5-carboxylic acid (5i)]	> 100
Cc1ccc(CNc2nc(C)c(C(=O)O)s2)cc1 [4-methyl-2-{[(4-methylphenyl)methyl]amino}-1,3-thiazole-5-carboxylic acid (5e)]	> 100
Cc1nc(NCc2ccc(Cl)cc2)sc1C(=O)O [2-{[(4-chlorophenyl)methyl]amino}-4-methyl-1,3-thiazole-5-carboxylic acid (5b)]	> 100
COc1ccc(CNc2nc(C)c(C(=O)O)s2)cc1 [2-{[(4-methoxyphenyl)methyl]amino}-4-methyl-1,3-thiazole-5-carboxylic acid (5g)]	> 100
COc1ccccc1CNc1nc(C)c(C(=O)O)s1 [2-{[(2-methoxyphenyl)methyl]amino}-4-methyl-1,3-thiazole-5-carboxylic acid (5n)]	14.7
Cc1nc(NCc2ccccc2)sc1C(=O)O [2-(Benzylamino)-4-methyl-1,3-thiazole-5-carboxylic acid (5a)]	98.1
Cc1nc(NCc2ccc(O)cc2)sc1C(=O)O [2-{[(4-hydroxyphenyl)methyl]amino}-4-methyl-1,3-thiazole-5-carboxylic acid (5f)]	21.5
Cc1nc(NCc2ccccc2Cl)sc1C(=O)O [2-{[(2-chlorophenyl)methyl]amino}-4-methyl-1,3-thiazole-5-carboxylic acid (5j)]	9.9
Cc1ccccc1CNc1nc(C)c(C(=O)O)s1 [4-methyl-2-{[(2-methylphenyl)methyl]amino}-1,3-thiazole-5-carboxylic acid (5k)]	3.6
Cc1nc(NCc2ccc(O)c(O)c2)sc1C(=O)O [2-{[(3,4-dihydroxyphenyl)methyl]amino}-4-methyl-1,3-thiazole-5-carboxylic acid (5p)]	60.2
Cc1nc(NCc2ccccc2O)sc1C(=O)O [2-{[(2-hydroxyphenyl)methyl]amino}-4-methyl-1,3-thiazole-5-carboxylic acid (5m)]	> 100
Cc1nc(NCc2ccc(Cl)cc2Cl)sc1C(=O)O [2-{[(2,4-dichlorophenyl)methyl]amino}-4-methyl-1,3-thiazole-5-carboxylic acid (5l)]	8.1
Cc1nc(NCc2ccc(Br)cc2)sc1C(=O)O [2-{[(4-bromophenyl)methyl]amino}-4-methyl-1,3-thiazole-5-carboxylic acid (5d)]	43.2
